The values below come from US7015309B1 (The Wistar Institute of Anatomy and Biology, priority 1999, dated 2006).

One data set relates to sheep erythrocytes. The data set is described as follows: Hemolytic activity, release of hemoglobin. To be noted: for Absorbence at 405 nm: 40 μM peptide, one hour, 39° C. The protocol:
To determine whether native and modified pyrrhocoricin peptides were toxic to mammalian cells, several peptides from Example 1 above, a positive control, and a negative control were examined for hemolytic activity. Hemolytic activity was assayed with sheep erythrocytes suspended in Alsever's solution (BioWhittaker, Walkersville, Md.), and diluted with Dulbecco's phosphate-buffered saline, pH 7.2. Thirty μL of a 1% suspension of the red blood cells was incubated with agitation at 39° C. with 30 μL of 40 to 256 μM of each of the following peptides dissolved in phosphate buffered saline for one hour and centrifuged at 1000 g for five minutes. Fifty μL of the supernatant was collected and the release of hemoglobin was detected by measuring the ultraviolet absorbences of triplicate samples of the 40 μM or 256 μM test peptides and the control peptides at 405 nm.

The next data set concerns Salmonella typhimurium. The protocol: (§1) Growth inhibition assays were performed using the peptides of Example 1 and the Gram positive microorganisms Micrococcus luteus and Bacillus megaterium, and the Gram negative microorganisms, Escherichia coli D22, Agrobacterium tumefaciens, and Salmonella typhimurium. Anti-bacterial assays were performed in sterilized 96-well plates (Nunc F96 microtiter plates) with a final volume of 100 μl as described in Bulet (1996), cited above. Briefly, 90 μl of a suspension of a midlogarithmic phase bacterial culture at an initial 600 nm UV absorbence of 0.001 in Luria-Bertani rich nutrient medium was added to 10 μl of serially diluted peptides in sterilized water. The final peptide concentrations ranged between 0.15 and 80 μM. The plates were incubated at 30° C. for 24 hours with gentle shaking, and the growth inhibition was measured by recording the increase of the UV absorbence at 600 nm on an SLT Labinstruments 400 ATC microplate reader. The experiments were conducted over a 7-month period.

Data set [1] has as its system Agrobacterium tumefaciens. As to conditions: 24 h. As to the method: as §1
Another data set concerns Micrococcus luteus. As to the method: as §1
The next data set relates to Bacillus megaterium. The protocol: as §1
For data set [2] the following is noted: human sera, preliminary metabolism studies.
Description: Owing to the fact that the use of diluted serum increases peptide recovery as well as retards the reaction kinetics to a manageable rate, the experiments were conducted using 25% aqueous sera.
For serum stability studies, 10 μl of an aqueous peptide stock solution containing about 0.8 mg/ml peptide was added to 200 μl 25% aqueous pooled mouse or human serum (Sigma, St. Louis, Mo.), according to the process described in M. F. Powell et al, Pharmacol Res, 10: 1268–1273 (1993). The peptide-serum mixture was thermostated at 37° C. After 0 minutes, 45 minutes, 2 hours and 4 hours, three samples of each peptide were taken and precipitated by the addition of 40 μl 15% aqueous trichloroacetic acid. The samples were stored at 4° C. for 20 minutes and centrifuged. The peptides and some remaining serum proteins were recovered in the supernatant after the trichloroacetic acid precipitation. The supernatants were immediately frozen on dry-ice and 220 μl of each were analyzed on RP-HPLC. A mouse serum and two different batches of the same SIGMA catalog number of human sera (human 1, approximately 1 year old, and human 2, approximately 1 month old) were also used.
The lyophilized samples were redissolved in 0.1 aqueous TFA and submitted for matrix assisted laser desorption/ionization (MALDI-MS).
The missing residues are indicated (e.g—C2 means that the C-terminal two residues are cleaved off). […] In Table 4, the relative amounts of the degradation products are estimated based on the MALDI-MS peak heights. 0=not detected; 1=very weak (below 5000), 2=weak (5–10000), 3=medium (10–15000), 4=strong (15000-uncleaved molecular ion at 25–30000), 5=very strong (above uncleaved molecular ion).
The subject of the next data set is COS cells. The data set is described as follows: Direct killing of immortalized COS cells. The data set is classed as cell-based. An excerpt:
In another toxicity assay, COS cell survival was studied for pyrrhocoricin and cecropin B (Bachem Biosciences, King of Prussia, Pa.) as the positive control.

Where [3] appears, read: read-out: IC50 in μM against Bacillus megaterium, 30° C., 24 hours, for Peptide 22 original assay (a).

Where two headings read alike, the source gives them in different places. Non-standard residues stand in square brackets, D forms with d. Residues, ends and D or L forms follow the SMILES beside them. *: point of attachment. 5FAM = O=C1OC2(c3ccc(O)cc3Oc3cc(O)ccc32)c2ccc(C(=O)*)cc21; Biotin = O=C1N[C@H]2[C@H](CS[C@H]2CCCCC(=O)*)N1; Ac6c = NC1(C(=O)O)CCCCC1; X2 = O=C1CCCC1N* Where only a bound is given, the exact number is not on record here.

As to `CC[C@H](C)[C@H](NC(=O)CN)C(=O)NCC(=O)N[C@@H](C)C(=O)N[C@H](C(=O)N[C@@H](CC(C)C)C(=O)N[C@@H](CCCCN)C(=O)N[C@H](C(=O)N[C@@H](CC(C)C)C(=O)N[C@H](C(=O)N[C@H](C(=O)NCC(=O)N[C@@H](CC(C)C)C(=O)N1CCC[C@H]1C(=O)N[C@@H](C)C(=O)N[C@@H](CC(C)C)C(=O)N[C@H](C(=O)N[C@@H](CO)C(=O)N[C@@H](Cc1c[nH]c2ccccc12)C(=O)N[C@H](C(=O)N[C@@H](CCCCN)C(=O)N[C@@H](CCCNC(=N)N)C(=O)N[C@@H](CCCCN)C(=O)N[C@@H](CCCNC(=N)N)C(=O)N[C@@H](CCC(N)=O)C(=O)N[C@@H](CCC(N)=O)C(N)=O)[C@@H](C)CC)[C@@H](C)CC)[C@@H](C)O)[C@@H](C)O)C(C)C)C(C)C` [Melittin, reference compound], in the data set with sheep erythrocytes, the “lowest concentration that lysed sheep erythrocytes” value amounted to 5 µM and the “Absorbence at 405 nm” value worked out at 2.99 ± 0.06. The “lysis of erythrocytes (in words)” value with sheep erythrocytes (final concentration of 40 μM) was “lysed the erythrocytes”.
As usually defined, the IC50 is the concentration that inhibits the measured activity by half. Take `CC[C@H](C)[C@H](NC(=O)[C@@H]1CCCN1C(=O)[C@H](CCCNC(=N)N)NC(=O)[C@@H]1CCCN1C(=O)[C@@H]1CCCN1C(=O)[C@@H](NC(=O)[C@@H]1CCCN1C(=O)[C@H](CCCNC(=N)N)NC(=O)[C@@H]1CCCN1C(=O)[C@H](CC(C)C)NC(=O)[C@H](Cc1ccc(O)cc1)NC(=O)[C@H](CO)NC(=O)CNC(=O)[C@H](CCCCN)NC(=O)[C@H](CC(=O)O)NC(=O)C1(N)CCCCC1)[C@@H](C)O)C(=O)N[C@@H](Cc1ccc(O)cc1)C(=O)N[C@@H](CC(N)=O)C(=O)N[C@@H](CCCNC(=N)N)C(=O)N[C@@H](CC(N)=O)C(N)=O` [Peptide 6] (H-[Ac6c]DKGSYLPRPTPPRPIYNRN-NH2; N-terminus and C-terminus assumed): the IC50 with Salmonella typhimurium (murium, 24 h) was determined as 2.5 µM; in data set [1], 1.25 µM; with Micrococcus luteus (24 h) it was 5 µM; in the data set on Bacillus megaterium (Bacillus, 24 h) it was 10 µM.
The like results for `CC[C@H](C)[C@H](NC(=O)[C@@H]1CCCN1C(=O)[C@H](CCCNC(=N)N)NC(=O)[C@@H]1CCCN1C(=O)[C@@H]1CCCN1C(=O)[C@@H](NC(=O)[C@@H]1CCCN1C(=O)[C@H](CCCNC(=N)N)NC(=O)[C@@H]1CCCN1C(=O)[C@H](CC(C)C)NC(=O)[C@H](Cc1ccc(O)cc1)NC(=O)[C@H](CO)NC(=O)CNC(=O)[C@H](CCCCN)NC(=O)[C@H](CC(=O)O)NC(=O)[C@@H](NC(=O)[C@H](CCCCN)NC(C)=O)C(C)C)[C@@H](C)O)C(=O)N[C@@H](Cc1ccc(O)cc1)C(=O)N[C@@H](CC(N)=O)C(=O)N[C@@H](CCCNC(=N)N)C(=O)NC1CCCC1=O` (stereo partly shown) [Peptide 8] (Ac-KVDKGSYLPRPTPPRPIYNR-X2; N-terminus and C-terminus assumed) were, in that order, 2.5 µM, 1.25 µM, 5 µM and 20 µM.
For `CC[C@H](C)[C@H](NC(=O)[C@@H]1CCCN1C(=O)[C@H](CCCNC(=N)N)NC(=O)[C@@H]1CCCN1C(=O)[C@@H]1CCCN1C(=O)[C@@H](NC(=O)[C@@H]1CCCN1C(=O)[C@H](CCCNC(=N)N)NC(=O)[C@@H]1CCCN1C(=O)[C@H](CC(C)C)NC(=O)[C@H](Cc1ccc(O)cc1)NC(=O)[C@H](CO)NC(=O)CNC(=O)[C@H](CCCCN)NC(=O)[C@H](CC(=O)O)NC(=O)[C@H](N)C(C)C)[C@@H](C)O)C(=O)N[C@@H](Cc1ccc(O)cc1)C(=O)N[C@@H](CC(N)=O)C(=O)N[C@@H](CCCNC(=N)N)C(=O)N[C@H](CC(N)=O)C(N)=O` [Peptide 12] (H-[dV]DKGSYLPRPTPPRPIYNR[dN]-NH2; N-terminus and C-terminus assumed), the IC50 in the data set with Salmonella typhimurium (murium, 24 h) was 5 µM; in data set [1], 2.5 µM; in the data set on Micrococcus luteus (24 h), 10 µM; in the data set on Bacillus megaterium (setting [3]), over 80 µM.
With `CC[C@H](C)[C@@H]1NC(=O)[C@@H]2CCCN2C(=O)[C@H](CCCNC(=N)N)NC(=O)[C@@H]2CCCN2C(=O)[C@@H]2CCCN2C(=O)[C@H]([C@@H](C)O)NC(=O)[C@@H]2CCCN2C(=O)[C@H](CCCNC(=N)N)NC(=O)[C@@H]2CCCN2C(=O)[C@H](CC(C)C)NC(=O)[C@H](Cc2ccc(O)cc2)NC(=O)[C@H](CO)NC(=O)CNC(=O)[C@H](CCCCN)NC(=O)[C@H](CC(=O)O)NC(=O)[C@H](C(C)C)NC(=O)[C@H](CCCCN)NC(=O)[C@H](CC(C)C)NC(=O)[C@@H]2CCCN2C(=O)[C@H](CCCNC(=N)N)NC(=O)[C@@H]2CCCN2C(=O)[C@H]([C@@H](C)O)NC(=O)[C@@H]2CCCN2C(=O)[C@@H]2CCCN2C(=O)[C@H](CCCNC(=N)N)NC(=O)[C@H](CC(N)=O)NC(=O)[C@H](CCCNC(=N)N)NC(=O)[C@H](CC(N)=O)NC(=O)[C@H](Cc2ccc(O)cc2)NC1=O` [Peptide 17] (cyclo(KVDKGSYLPRPTPPRPIYNRNRPPTPRPL)), in data set [2], the endopeptidase cleavage site entry was “between Asn 18 and Arg19”. Moreover, the IC50 worked out at 5 µM in the data set on Salmonella typhimurium (murium, 24 h); 2.5 µM in data set [1]; 0.6 µM with Micrococcus luteus (24 h); 2.5 µM with Bacillus megaterium (Bacillus, 24 h).
As to `CC[C@H](C)[C@H](NC(=O)[C@@H]1CCCN1C(=O)[C@H](CCCNC(=N)N)NC(=O)[C@@H]1CCCN1C(=O)[C@@H]1CCCN1C(=O)[C@@H](NC(=O)[C@@H]1CCCN1C(=O)[C@H](CCCNC(=N)N)NC(=O)[C@@H]1CCCN1C(=O)[C@H](CC(C)C)NC(=O)[C@H](Cc1ccc(O)cc1)NC(=O)[C@H](CO)NC(=O)CNC(=O)[C@H](CCCCN)NC(=O)[C@H](CC(=O)O)NC(=O)[C@@H](NC(=O)[C@H](CCCCN)NC(=O)CCCC[C@@H]1SC[C@@H]2NC(=O)N[C@@H]21)C(C)C)[C@@H](C)O)C(=O)N[C@@H](Cc1ccc(O)cc1)C(=O)N[C@@H](CC(N)=O)C(=O)N[C@@H](CCCNC(=N)N)C(=O)N[C@@H](CC(N)=O)C(N)=O` [Peptide 18] (Biotin-KVDKGSYLPRPTPPRPIYNRN-NH2), the IC50 in the data set on Bacillus megaterium (setting [3]) is over 80 µM.
Same read-out and setting: in the case of `CC[C@H](C)[C@H](NC(=O)[C@@H]1CCCN1C(=O)[C@H](CCCNC(=N)N)NC(=O)[C@@H]1CCCN1C(=O)[C@@H]1CCCN1C(=O)[C@@H](NC(=O)[C@@H]1CCCN1C(=O)[C@H](CCCNC(=N)N)NC(=O)[C@@H]1CCCN1C(=O)[C@H](CC(C)C)NC(=O)[C@H](Cc1ccc(O)cc1)NC(=O)[C@H](CO)NC(=O)CNC(=O)[C@H](CCCCN)NC(=O)[C@H](CC(=O)O)NC(=O)[C@@H](NC(=O)[C@H](CCCCN)NC(=O)c1ccc2c(c1)C(=O)OC21c2ccc(O)cc2Oc2cc(O)ccc21)C(C)C)[C@@H](C)O)C(=O)N[C@@H](Cc1ccc(O)cc1)C(=O)N[C@@H](CC(N)=O)C(=O)N[C@@H](CCCNC(=N)N)C(=O)N[C@@H](CC(N)=O)C(N)=O` [Peptide 19] (5FAM-KVDKGSYLPRPTPPRPIYNRN-NH2) it was over 80 µM.
As for `CC[C@H](C)[C@H](NC(=O)[C@H](CCCNC(=N)N)NC(=O)[C@@H](NC(=O)[C@H](Cc1ccc(O)cc1)NC(=O)[C@@H](NC(=O)[C@H](C)N)C(C)C)[C@@H](C)O)C(=O)N[C@@H](CCSC)C(=O)N[C@@H](CCSC)C(=O)N[C@@H](CC(N)=O)C(=O)NCC(=O)NCC(=O)N[C@@H](CCCNC(=N)N)C(=O)N[C@@H](CC(C)C)C(=O)N[C@@H](CCCCN)C(=O)N[C@@H](CCCNC(=N)N)C(N)=O` [Peptide 31D, reference compound], the “Absorbence at 405 nm” value in the data set with sheep erythrocytes is recorded as 0.160 ± 0.021.
Regarding “Ac-KVDKGSYLPRPTPPRPIYNRD-NH2 (C-terminus assumed) [Peptide 20]”, the IC50 with Salmonella typhimurium (read-out: IC50 in μM against Salmonella typhimurium, 30° C., 24 hours, for Peptide 22 original assay (a)) was over 80 µM; in data set [1], 40 µM; with Micrococcus luteus (read-out: IC50 in μM against Micrococcus luteus, 30° C., 24 hours, for Peptide 22 original assay (a)), over 80 µM; in the data set on Bacillus megaterium (setting [3]), over 80 µM.
“Ac-KVDKGSYLPRPTPPRPIYNRN-NH2 (C-terminus assumed) [Peptide 5]”: the IC50 with Salmonella typhimurium (murium, 24 h) was 40 µM; in data set [1], 5 µM; with Micrococcus luteus (24 h) it was 40 µM; in the data set with Bacillus megaterium (setting [3]), over 80 µM.
As to “Ac-KVDKVDKGSYLPRPTPPRPIYNRN-NH2 (C-terminus assumed) [Peptide 3]”, the IC50 in the data set on Salmonella typhimurium (murium, 24 h) was 5 µM; in data set [1] it was 10 µM; in the data set with Micrococcus luteus (24 h), 80 µM; with Bacillus megaterium (setting [3]), over 80 µM.
For “Ac-RVDKGSYLPRPTPPRPIYNRN-NH2 (C-terminus assumed) [Peptide 4]”, in that order: 2.5 µM, 2.5 µM, 5 µM and over 80 µM.
Regarding Cecropin [reference compound], the “Cell Count after Treatment” value in the data set with COS cells (5 μM peptide) was 6 ± 6; in the data set on COS cells (10 μM peptide) it was 6.7 ± 0.3; in the data set with COS cells (50 μM peptide), 7.3 ± 3.7. For the same compound, the “effect on COS cell count (in words)” value in the data set with COS cells (at as low as 5 μM concentration) was “reduced the cell count”.
